Assay results taken from patent US20040162274A1, “Inhibition of steroid synthesis by use of progesterone or a progesterone receptor agonist” (priority 2002, published 2004).

Columns and labels:
Type in all cases: cell-based, rat
[1] = tested on: isolated Leydig cells of rats; experiment: hCG-induced cAMP production in isolated Leydig cells of rats (ELISA); conditions: for amount of cAMP formed in the cells in response to gonadotropic stimulation: FIGS. 2 and 3
Experimental: (§1) The testicles of young (three months old) and old (23-24 months old) Wistar rats (Charles River, Sulzfeld, Germany) were removed immediately after killing the rats by means of carbon dioxide anaesthesia and cervical dislocation.
(§2) In order to isolate and to purify the Leydig cells from the testicles of young and old rats, the decapsulated testicular mass of healthy Wistar rats was treated with collagenase (0.25 mg/ml) for 30 minutes at room temperature as described by Mukhopadhyay et al., Biochem. J., 239:463-467 (1986a), Mukhopadhyay et al., FEBS Lett., 202:111-116 (1986b)). The homogenous cell suspension so obtained was filtered through a nylon filter to obtain an impure Leydig cell preparation. After further purification by means of a Percoll gradient, the final number of high-grade purified Leydig cells was determined using a Neubauer chamber.
Aliquots of 100,000 cells per incubation tube were used for the experiments in which cAMP was measured. The cells were pre-incubated for 3 hours and subsequently incubated for 30 minutes with or without the addition of different concentrations of hCG as a surrogate for LH. In order to investigate the effect of the different steroids, Leydig cells were subjected to steroids for 3 hours as described. The cells were then stimulated with hCG (3 ng/ml) for 30 minutes. Incubation was stopped by the addition of absolute ethanol (final alcohol concentration ca. 80%) and subsequent mixing by means of vortices. The ethanol extract was evaporated until dry, and the residue dissolved in 1 ml of MEM, which contained 0.1% sodium azide. The amount of cAMP formed was determined by means of a specific ELISA, which was carried out as described in Budnik and Mukhopadhyay, FEBS Letters, 419:4-8 (1997). However, commercially available ELISAs, such as, for example, CM 59221 (IBL, Hamburg, Germany) or DE 0355 or DE 0450 (R&D Systems GmbH, Wiesbaden, Germany) can also be used.
Leydig cells were subjected to 3 different steroids for 3 hours (see FIG. 1). Subsequently, the cells were stimulated over 30 minutes with hCG (human chorion gonadotropin; 3 ng/ml) as a surrogate for LH.
The amount of cAMP formed was determined using a specific ELISA.

[2] = tested on: isolated Leydig cells of rats; experiment: hCG-induced testosterone production in isolated Leydig cells of rats; conditions: different concentrations for 3 hours, then hCG 5 ng/ml for 3 hours; testosterone in medium; FIG. 3
Experimental: as §1, §2
Similar culture conditions as described above were used for experiments, in which testosterone was measured. However, aliquots of 50,000 cells per incubation tube were used. […] The content of testosterone was determined by means of specific, commercially available kits (IBL, Hamburg). The amount of testosterone for 100,000 cells was calculated on the basis of the measured values.
Both R5020 and drospirenone are clearly, structurally different from testosterone. […] Then, the quantity of testosterone that accumulated in the medium was measured.

StAR protein = experiment: StAR expression in Leydig cells in vitro (northern blot)
Source text: RNA was isolated from 1.5×10^6 high-quality cleaned Leydig cells, which were cultivated in 12-well plates (750,000 cells/well). The RNA was extracted in accordance with a modified single-step method of Chomczynski and Sacchi, Anal. Biochem., 162:156-159 (1987), using the small-scale phenol-free RNA isolation kit (Ambion Inc., Austin, Tex.). According to the size, the isolated RNA was separated by gel electrophoresis in a 1.2% agarose gel using the formaldhyde/morpholino-propane sulphonic acid method (Sambrook et al., Vol.1, 7.37, 7.39-7.52, Nolan, C. (Ed), Cold Spring Harbor Laboratory Press, Cold Spring Harbor, N.Y.). The transfer (blotting) of the RNA from the gel onto a nylon membrane (nytran, Schleicher and Schüll, Dassel, Germany) was carried out by capillary transfer using a downwards-directed transfer for 4 hours in accordance with the manufacturer's instructions (Ambion Inc., Austin, Tex.; AMS Biotechnology, Wiesbaden, Germany) with modifications by Chomczynski, P., Anal. Biochem., 201:134-139 (1992). […]
As the gestagens mentioned above apparently both have inhibitory effects on cAMP and on the production of steroids in gonadotropin-stimulated Leydig cells, the inhibitory effects of progesterone on the quantity of StAR protein expressed were analysed. […] At the end of the incubation, total RNA was extracted and StAR protein expression was analysed using northern blots. […]

Structure (SMILES): CCC(=O)[C@@]1(C)CC[C@H]2[C@@H]3CCC4=CC(=O)CCC4=C3CC[C@@]21C [R5020]
- amount of cAMP formed in the cells in response to gonadotropic stimulation [1]: drastically reduced
- effect on hCG-induced production of testosterone [2]: able to inhibit the production of testosterone

Structure (SMILES): C[C@]12CCC(=O)C=C1[C@@H]1C[C@@H]1[C@H]1[C@@H]3[C@@H]4C[C@@H]4[C@@]4(CCC(=O)O4)[C@@]3(C)CC[C@@H]12 [drospirenone]
- amount of cAMP formed in the cells in response to gonadotropic stimulation [1]: drastically reduced
- effect on hCG-induced production of testosterone [2]: able to inhibit the production of testosterone

Structure (SMILES): CC(=O)[C@H]1CC[C@H]2[C@@H]3CCC4=CC(=O)CC[C@]4(C)[C@H]3CC[C@]12C [progesterone, 4-pregnene-3,20-dione]
- effect on cAMP reaction to gonadotropin stimulation ([1]; Leydig cells subjected to steroid 3 hours, then hCG 3 ng/ml 30 minutes, FIG. 1): significantly inhibit
- effect on hCG-induced cAMP formation at 0.1 μmol/l ([1]; concentration 0.1 μmol/l (10^−7 mol/l)): almost no effects
- effect on hCG-induced cAMP formation, dose-response curve ([1]; dose-response curve, FIG. 2): dose-dependent inhibitory effect
- effect on hCG-induced cAMP formation at higher concentrations ([1]; higher concentrations, up to 2.5 μmol/l): clearly inhibitory effects
- hCG-stimulated amounts of StAR protein (StAR protein; pre-incubation 3 hours, then hCG 5 ng/ml 3 hours, Lane 4 vs Lane 2, FIG. 4): significant reduction
- expression of StAR protein in cells not treated with a gonadotropin (StAR protein; pre-treatment 3 hours, no hCG, Lane 3, FIG. 4): did not significantly affect
